Consider three compounds from patent US10870647B2, “Imidazopyridine derivative, method for preparing same, and pharmaceutical composition containing same as active ingredient for preventing or treating cancer” (DAEGU-GYEONGBUK MEDICAL INNOVATION FOUNDATION, priority 2016, dated 2020).

Holding throughout (experiment): Kinase selectivity, scanMAX Kinase assay panel (DiscoverX), % control at 1 uM
Format in all cases: binding

Test [1] concerns the target T1, scanMAX Kinase assay panel (Homo sapiens, UniProt O15197).
T1 construct: purchased DiscoverX
T1 sequence (O15197 32-1021): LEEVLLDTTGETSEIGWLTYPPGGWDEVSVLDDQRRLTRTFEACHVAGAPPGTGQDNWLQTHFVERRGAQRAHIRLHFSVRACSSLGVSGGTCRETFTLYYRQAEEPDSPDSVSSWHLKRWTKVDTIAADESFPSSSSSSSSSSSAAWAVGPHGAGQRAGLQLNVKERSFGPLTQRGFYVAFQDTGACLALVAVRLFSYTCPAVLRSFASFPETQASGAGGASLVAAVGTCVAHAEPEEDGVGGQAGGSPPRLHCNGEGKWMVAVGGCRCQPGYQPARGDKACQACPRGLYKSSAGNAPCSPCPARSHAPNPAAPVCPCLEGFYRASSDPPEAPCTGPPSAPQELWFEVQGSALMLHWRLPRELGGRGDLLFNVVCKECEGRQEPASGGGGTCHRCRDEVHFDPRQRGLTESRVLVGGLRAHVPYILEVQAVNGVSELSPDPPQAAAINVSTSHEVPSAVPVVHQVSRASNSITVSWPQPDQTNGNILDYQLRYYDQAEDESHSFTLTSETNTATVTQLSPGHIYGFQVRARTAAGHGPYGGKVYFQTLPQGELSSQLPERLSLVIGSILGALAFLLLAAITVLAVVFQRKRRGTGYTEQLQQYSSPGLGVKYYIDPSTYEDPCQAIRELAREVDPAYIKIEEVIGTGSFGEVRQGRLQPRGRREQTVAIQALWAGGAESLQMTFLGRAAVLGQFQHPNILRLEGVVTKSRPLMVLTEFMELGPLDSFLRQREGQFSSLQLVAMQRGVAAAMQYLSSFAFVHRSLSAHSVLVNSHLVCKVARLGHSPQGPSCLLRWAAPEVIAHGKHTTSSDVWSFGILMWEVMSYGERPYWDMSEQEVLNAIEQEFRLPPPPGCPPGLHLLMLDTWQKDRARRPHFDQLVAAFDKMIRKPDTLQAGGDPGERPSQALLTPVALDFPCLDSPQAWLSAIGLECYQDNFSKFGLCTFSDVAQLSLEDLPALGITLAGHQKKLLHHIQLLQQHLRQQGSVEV
The note with it: EPHB6; 1 uM; read-out: Percent Control (%). An outline of the steps: (§1)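 1 uM cpd (DMSO) per kinase; % ctrl = [cpd − pos ctrl]/[neg ctrl − pos ctrl] × 100; hit if <35.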

Test [2] has as its target T2, scanMAX Kinase assay panel (Homo sapiens, UniProt O60674).
T2 construct: purchased DiscoverX
The settings on record: JAK2 (JH1domain-catalytic); 1 uM; read-out: Percent Control (%). The procedure, abridged: as §1

In test [3] the target is T3, scanMAX Kinase assay panel (Homo sapiens, UniProt O95835).
T3 construct: purchased DiscoverX
T3 sequence (O95835 1-1130): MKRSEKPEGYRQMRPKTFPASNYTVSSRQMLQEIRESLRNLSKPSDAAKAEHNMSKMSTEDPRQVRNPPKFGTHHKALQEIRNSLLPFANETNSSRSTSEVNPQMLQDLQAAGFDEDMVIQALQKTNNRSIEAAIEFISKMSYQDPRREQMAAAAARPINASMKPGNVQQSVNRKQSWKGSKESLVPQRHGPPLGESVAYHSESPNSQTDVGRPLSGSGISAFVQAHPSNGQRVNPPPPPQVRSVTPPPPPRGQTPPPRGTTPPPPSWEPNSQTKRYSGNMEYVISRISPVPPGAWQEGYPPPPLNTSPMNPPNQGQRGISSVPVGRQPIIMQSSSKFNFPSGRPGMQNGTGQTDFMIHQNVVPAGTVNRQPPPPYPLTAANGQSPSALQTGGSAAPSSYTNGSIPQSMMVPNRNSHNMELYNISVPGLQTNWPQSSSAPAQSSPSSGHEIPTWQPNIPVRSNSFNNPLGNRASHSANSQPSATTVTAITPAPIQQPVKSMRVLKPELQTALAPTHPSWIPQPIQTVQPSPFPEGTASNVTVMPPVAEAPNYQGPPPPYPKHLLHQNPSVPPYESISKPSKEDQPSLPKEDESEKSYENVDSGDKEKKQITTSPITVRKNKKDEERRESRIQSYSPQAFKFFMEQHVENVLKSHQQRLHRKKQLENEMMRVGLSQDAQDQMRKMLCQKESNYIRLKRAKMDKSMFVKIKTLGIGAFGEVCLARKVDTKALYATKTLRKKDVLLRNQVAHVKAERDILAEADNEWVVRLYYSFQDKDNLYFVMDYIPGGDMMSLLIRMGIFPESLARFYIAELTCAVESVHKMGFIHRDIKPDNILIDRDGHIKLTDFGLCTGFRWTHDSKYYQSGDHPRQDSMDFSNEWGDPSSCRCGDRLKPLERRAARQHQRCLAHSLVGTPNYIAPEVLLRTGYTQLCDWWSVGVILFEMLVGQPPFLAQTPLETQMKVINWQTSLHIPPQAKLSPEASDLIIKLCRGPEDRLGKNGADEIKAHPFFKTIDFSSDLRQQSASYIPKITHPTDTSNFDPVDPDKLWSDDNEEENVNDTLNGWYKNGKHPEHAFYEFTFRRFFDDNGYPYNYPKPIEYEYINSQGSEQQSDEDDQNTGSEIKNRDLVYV
The note with it: LATS1; 1 uM; read-out: Percent Control (%). The procedure, abridged: as §1

The target in test [4] is T4, scanMAX Kinase assay panel (Homo sapiens, UniProt P48729).
T4 construct: purchased DiscoverX
T4 sequence (P48729 whole entry): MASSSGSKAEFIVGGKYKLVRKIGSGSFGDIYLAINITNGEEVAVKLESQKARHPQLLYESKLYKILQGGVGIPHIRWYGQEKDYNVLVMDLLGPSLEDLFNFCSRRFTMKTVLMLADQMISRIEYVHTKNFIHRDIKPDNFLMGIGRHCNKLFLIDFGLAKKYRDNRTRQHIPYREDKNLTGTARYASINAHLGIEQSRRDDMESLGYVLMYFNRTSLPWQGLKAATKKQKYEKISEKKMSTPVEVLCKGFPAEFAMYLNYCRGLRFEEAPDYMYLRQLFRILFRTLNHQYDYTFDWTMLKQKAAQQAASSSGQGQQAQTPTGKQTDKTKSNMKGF
The settings on record: CSNK1A1; 1 uM; read-out: Percent Control (%). The procedure, abridged:
as §1

Test [5] deals with T5, scanMAX Kinase assay panel (Homo sapiens, UniProt P49759).
T5 construct: purchased DiscoverX
T5 sequence (P49759 whole entry): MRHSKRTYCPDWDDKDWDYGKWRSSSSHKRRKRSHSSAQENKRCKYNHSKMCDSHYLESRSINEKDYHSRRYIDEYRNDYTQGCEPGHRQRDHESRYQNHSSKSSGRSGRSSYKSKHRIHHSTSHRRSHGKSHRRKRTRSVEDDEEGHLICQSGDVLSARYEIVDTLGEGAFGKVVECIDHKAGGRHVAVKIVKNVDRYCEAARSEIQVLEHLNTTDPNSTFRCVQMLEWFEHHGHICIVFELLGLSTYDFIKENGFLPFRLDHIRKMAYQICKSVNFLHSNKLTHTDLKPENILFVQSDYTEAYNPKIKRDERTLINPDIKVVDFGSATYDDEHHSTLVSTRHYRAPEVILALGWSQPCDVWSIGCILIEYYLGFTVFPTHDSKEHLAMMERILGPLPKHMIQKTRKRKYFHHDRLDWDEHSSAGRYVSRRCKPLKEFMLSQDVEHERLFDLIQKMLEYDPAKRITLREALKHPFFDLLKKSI
The note with it: CLK1; 1 uM; read-out: Percent Control (%). The procedure, abridged:
as §1

Test [6] deals with T6, scanMAX Kinase assay panel (Homo sapiens, UniProt P53355).
T6 construct: purchased DiscoverX
T6 sequence (P53355 whole entry): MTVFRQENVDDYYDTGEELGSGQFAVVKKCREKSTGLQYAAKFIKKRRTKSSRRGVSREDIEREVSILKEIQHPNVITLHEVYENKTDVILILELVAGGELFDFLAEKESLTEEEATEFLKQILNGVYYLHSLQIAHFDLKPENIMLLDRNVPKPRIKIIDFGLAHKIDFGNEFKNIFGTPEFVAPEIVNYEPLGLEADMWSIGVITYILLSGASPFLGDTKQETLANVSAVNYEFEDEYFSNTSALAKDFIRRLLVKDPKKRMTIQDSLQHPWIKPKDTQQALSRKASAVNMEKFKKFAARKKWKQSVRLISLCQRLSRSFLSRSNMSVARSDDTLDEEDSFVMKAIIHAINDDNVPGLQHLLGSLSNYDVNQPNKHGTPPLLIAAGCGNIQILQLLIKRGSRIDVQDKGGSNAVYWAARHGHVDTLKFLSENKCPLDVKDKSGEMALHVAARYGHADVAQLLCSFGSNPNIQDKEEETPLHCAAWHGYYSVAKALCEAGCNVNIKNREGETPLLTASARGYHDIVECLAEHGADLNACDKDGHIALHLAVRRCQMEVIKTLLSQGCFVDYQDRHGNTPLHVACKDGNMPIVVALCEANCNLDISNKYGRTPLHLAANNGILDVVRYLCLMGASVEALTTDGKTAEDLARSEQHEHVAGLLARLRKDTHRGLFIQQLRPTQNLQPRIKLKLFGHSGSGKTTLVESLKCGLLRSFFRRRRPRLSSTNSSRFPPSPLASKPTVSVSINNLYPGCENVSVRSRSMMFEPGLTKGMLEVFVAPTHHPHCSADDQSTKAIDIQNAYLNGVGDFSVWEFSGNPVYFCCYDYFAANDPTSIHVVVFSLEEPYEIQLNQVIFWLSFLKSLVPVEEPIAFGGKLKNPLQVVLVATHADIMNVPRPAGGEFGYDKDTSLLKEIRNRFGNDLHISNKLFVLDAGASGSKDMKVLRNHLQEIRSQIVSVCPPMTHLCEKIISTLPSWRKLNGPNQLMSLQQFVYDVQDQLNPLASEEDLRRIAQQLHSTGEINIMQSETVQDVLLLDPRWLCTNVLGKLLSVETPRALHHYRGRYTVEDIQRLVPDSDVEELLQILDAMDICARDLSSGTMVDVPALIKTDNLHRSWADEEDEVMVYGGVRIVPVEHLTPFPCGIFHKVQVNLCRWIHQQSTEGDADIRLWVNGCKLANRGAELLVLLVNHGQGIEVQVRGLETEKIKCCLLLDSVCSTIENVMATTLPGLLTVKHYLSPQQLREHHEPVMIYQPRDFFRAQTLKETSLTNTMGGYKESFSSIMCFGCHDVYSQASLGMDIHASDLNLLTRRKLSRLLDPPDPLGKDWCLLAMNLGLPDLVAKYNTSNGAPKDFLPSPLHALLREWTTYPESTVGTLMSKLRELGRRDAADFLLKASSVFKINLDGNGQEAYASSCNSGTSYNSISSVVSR
The note with it: DAPK1; 1 uM; read-out: Percent Control (%). An outline of the steps:
as §1

Test [7] concerns the target T7, scanMAX Kinase assay panel (Homo sapiens, UniProt Q00536).
T7 construct: purchased DiscoverX
The settings on record: PCTK1; 1 uM; read-out: Percent Control (%). The procedure, abridged: as §1

T7 sequence (Q00536 whole entry): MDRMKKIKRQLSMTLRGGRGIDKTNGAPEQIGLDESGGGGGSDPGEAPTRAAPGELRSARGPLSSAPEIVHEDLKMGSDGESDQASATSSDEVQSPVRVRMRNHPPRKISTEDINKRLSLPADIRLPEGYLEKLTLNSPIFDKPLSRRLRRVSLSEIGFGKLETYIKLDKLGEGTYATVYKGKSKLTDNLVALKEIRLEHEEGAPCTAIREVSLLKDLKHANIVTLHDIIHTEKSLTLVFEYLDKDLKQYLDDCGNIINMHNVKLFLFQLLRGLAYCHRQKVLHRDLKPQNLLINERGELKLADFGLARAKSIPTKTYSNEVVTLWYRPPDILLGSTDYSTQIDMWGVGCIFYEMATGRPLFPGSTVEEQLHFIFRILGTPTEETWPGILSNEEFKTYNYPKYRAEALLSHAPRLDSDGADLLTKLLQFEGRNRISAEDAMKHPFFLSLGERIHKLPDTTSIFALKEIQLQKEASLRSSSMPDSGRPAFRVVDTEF
T2 sequence (O60674 whole entry): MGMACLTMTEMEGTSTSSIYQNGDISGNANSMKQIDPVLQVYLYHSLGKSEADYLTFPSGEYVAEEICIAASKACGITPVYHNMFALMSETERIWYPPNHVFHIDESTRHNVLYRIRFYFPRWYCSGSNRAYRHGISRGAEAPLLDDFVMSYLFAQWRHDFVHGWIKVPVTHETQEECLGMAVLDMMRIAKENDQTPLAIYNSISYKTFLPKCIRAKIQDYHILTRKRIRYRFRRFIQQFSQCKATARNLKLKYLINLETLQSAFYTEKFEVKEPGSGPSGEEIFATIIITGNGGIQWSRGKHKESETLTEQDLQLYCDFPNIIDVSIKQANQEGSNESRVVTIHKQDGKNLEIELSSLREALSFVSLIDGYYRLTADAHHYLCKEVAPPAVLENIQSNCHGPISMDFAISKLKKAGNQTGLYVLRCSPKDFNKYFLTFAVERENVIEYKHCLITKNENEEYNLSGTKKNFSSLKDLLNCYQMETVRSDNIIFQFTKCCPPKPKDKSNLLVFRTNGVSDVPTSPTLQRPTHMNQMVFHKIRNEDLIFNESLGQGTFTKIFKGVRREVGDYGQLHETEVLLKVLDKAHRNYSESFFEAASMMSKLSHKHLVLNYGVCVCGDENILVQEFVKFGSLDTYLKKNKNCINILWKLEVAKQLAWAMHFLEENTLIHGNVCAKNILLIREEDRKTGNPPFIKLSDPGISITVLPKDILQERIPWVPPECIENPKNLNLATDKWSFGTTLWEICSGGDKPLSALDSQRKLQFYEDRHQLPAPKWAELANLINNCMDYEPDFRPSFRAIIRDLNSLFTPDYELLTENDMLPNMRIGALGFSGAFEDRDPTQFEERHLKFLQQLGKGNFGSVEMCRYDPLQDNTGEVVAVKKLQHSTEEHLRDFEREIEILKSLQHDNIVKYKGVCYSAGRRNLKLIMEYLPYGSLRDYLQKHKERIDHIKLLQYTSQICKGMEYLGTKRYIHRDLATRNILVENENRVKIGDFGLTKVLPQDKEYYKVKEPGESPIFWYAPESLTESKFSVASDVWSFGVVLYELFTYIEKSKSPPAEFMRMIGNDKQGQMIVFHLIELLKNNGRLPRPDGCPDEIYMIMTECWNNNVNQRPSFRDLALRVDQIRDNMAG

As for `Cc1ccc(C(=O)Nc2ccc(CN3CCN(C)CC3)c(C(F)(F)F)c2)cc1C#Cc1cnc2c(Nc3cnn(C)c3)cccn12` [Example 1, 4-methyl-3-((8-((1-methyl-1H-pyrazol-4-yl)amino)imidazo[1,2-a]pyridin-3-yl)ethynyl)-N-(4-((4-methylpiperazin-1-yl)methyl)-3-(trifluoromethyl)phenyl)benzamide], the remaining binding at 1 µM in test [1] stood at 1%; in test [2], 7%; in test [3], 40%; in test [4], 67%; in test [5], 25%; in test [6], 87%. For the same compound, the remaining binding at 1 µM in test [7] is 93%.

With `Cc1cn(-c2cc(NC(=O)c3ccc(C)c(C#Cc4cnc5c(Nc6cnn(C)c6)cccn45)c3)cc(C(F)(F)F)c2)cn1` [Example 12, 4-methyl-N-(3-(4-methyl-1H-imidazol-1-yl)-5-(trifluoromethyl)phenyl)-3-((8-((1-methyl-1H-pyrazol-4-yl)amino)imidazo[1,2-a]pyridin-3-yl)ethynyl)benzamide], the remaining binding at 1 µM in test [1] is 0%; in test [2], 100%; in test [3], 96%; in test [4], 76%; in test [5], 82%; in test [6], 80%. In addition, the remaining binding at 1 µM in test [7] turned out to be 100%.

Take `Cc1ccc(NC(=O)C2(C(=O)Nc3ccc(F)cc3)CC2)cc1C#Cc1cnc2c(Nc3cnn(C(C)C)c3)cccn12` [Example 78]: the remaining binding at 1 µM in test [1] amounted to 0%; in test [2], 98%; in test [3] it was 82%; in test [4], 85%; in test [5] it was 79%; in test [6], 98%. In test [7], the remaining binding at 1 µM was 100%.
